This note sets out measurements from paper PMC11912270, “Synthesis and SAR Studies of Acyl-Thiourea Platinum(II) Complexes Yield Analogs with Dual-Stage Antiplasmodium Activity” (ACS Medicinal Chemistry Letters, 2025).

The test system of series [1] is PfK1 ABS parasites. The series is classed as cell-based, Plasmodium falciparum. Here is the method:
The parasites were incubated under drug […]
incubation, parasite survival was determined by adding equal volumes of parasite suspension (100 µL) and SYBR Green I lysis buffer (0.2% µL/mL of 10 000x SYBR Green I, 20 mM Tris-HCl, pH 7.5, 5 mM EDTA, 0.008% saponin (w/v) and 0.08% Triton x-100). This was incubated for 1 hour at room temperature in the dark. […]

Series [2] concerns early-stage gametocytes (NF54-PfS16-GFP-Luc). The series can be described thus: Luciferase reporter assay, early-stage gametocytes. Format: cell-based, Plasmodium falciparum. Particulars: single biological repeat. The method, then: All the complexes were tested for their early- and late-stage gametocyte activity in a dual-point assay (1 μM and 5 μM). […]
1.5.In vitro activity against gametocyte stages
PfNF54 gametocytes were prepared and isolated according to the method reported by Reader […]
The in vitro gametocyte activity of the synthesized complexes was determined using a luciferase reporter line-based assay.
NF54-PfS16-GFP-Luc parasites were used for the stage-specific assessment of gametocytocidal activity. Early-stage gametocyte (stage I-III) experiments were performed on day 5 (representing >90% of early-stage and late-stage gametocyte (stages IV/V) experiments were performed on day 10. In each experiment, assays were set up with the use of 2-3% […]
Luciferase activity was determined in 30 µL parasite lysates by adding luciferin substrate (30 µL) (Promega Luciferase Assay System) at room temperature. […]

A short description of series [3]: Plasma protein binding by ultracentrifugation. Format: in vitro ADME, human. Here is the method:
To determine the PK parameters, blood samples were collected from the tail vein of the mice into heparinized microcentrifugation tubes at distinct sampling times (0.17, 0.5, 1, 3, 5, 7, 9, 24, and 48 hours for intravenous dosing; 0.5, 1, 3, 5, 7, 9, 24 and 48 hours for oral dosing). All samples were stored at -80 °C until extraction.
For the bioanalysis, frozen whole blood was thawed at room temperature and 1-0 µL of each sample was extracted by protein precipitation (using 100 µL of acetonitrile containing 10 ng/ml of the internal standard, MMV394902). The sample was centrifuged. Supernatants of each sample were injected into the LC-MS/MS column for analysis. The analytical limit of quantitation (LOQ) was 2 ng/mL. The pharmacokinetic parameters were calculated using noncompartmental analysis using PK Solutions 2.0 (Summit Research Services, Montrose, CO, USA) and a curve stripping-based method.
1.10. […]
In preparation for the assay, the required membrane filters were precoated with hexadecane (5%) in hexane and were allowed to dry. […] The samples were analyzed using LCMS/MS (Agilent rapid resolution HPLC, AB SCIEX 4500 MS). The permeability (Papp) was calculated by using the normalized (analyte/internal standard) peak areas. Membrane integrity was calculated from the Papp of Lucifer yellow (acceptable values <50nm/s) using a Modulus microplate reader. […]

Series [4] relates to ABS parasites. The series is described as follows: Dual point activity against ABS parasites. Format: cell-based, Plasmodium falciparum. The following applies: single biological repeat. The text has this:
Table S2: Dual point activity of platinum(II) complexes against ABS parasites, early- and late-
stage gametocytes. Values are averaged from technical triplicates performed for a single

`Nc1cc[n+]2c(c1)-c1cc(N)cc[n+]1[Pt-2]21[O+]=C(c2ccccc2)N=C(N(CCO)CCO)[S]1.[Cl-]` [C6]: the IC50 in series [1] (ABS, SYBR Green I, 96 h, mean ± S.E.) was found to be 0.102 ± 0.013 µM. In addition, the “RI (resistance index)” value in series [1] (RI = PfK1 IC50/PfNF54 IC50) came to 2.8. In addition, in series [2] (1 µM), the “EG (% inhibition) 1 µM” value is given as 13.7 % inhibition. For the same molecule, the “EG (% inhibition) 5 µM” value in series [2] (5 µM) worked out at 20.1 % inhibition. The molecule further had a Fu in series [3] (Fu = (100 – PPB)/100) of 0.01. Moreover, the “PPB (% bound)” value in series [3] (human plasma, 5 µM) was found to be 99% bound. Besides, the “ABS (% inhibition) 1 µM” value in series [4] (1 µM) is reported as 100.7 % inhibition. The “ABS (% inhibition) 5 µM” value in series [4] (5 µM) is recorded as 100.2 % inhibition.
